From paper PMC11791314 (The Journal of Biological Chemistry, 2024)

What was measured:
[1] = tested on: T1, HeLa cell line tubulin (HeLaT), αβ-tubulin heterodimer; assay: mass photometry of ring assembly (Kd-app); assay type: binding
T1 construct: native αβ-tubulin purified from cultured HeLa cells (isotype mixture); with α1B-tubulin

[2] = biological target: T2, blood cell-specific α1/β1-tubulin (ChET), β1-tubulin (Gallus gallus, UniProt P02552+P09207); assay: ([…] Å, C8 ring); mass photometry Kd-app; assay type: binding
T2 construct: gene TUBA1A; native α1/β1-tubulin purified from the marginal band of chicken erythrocytes; with α1-tubulin (TUBA1A, P02552)

[3] = biological target: T3, bovine brain tubulin (BBT), αβ-tubulin heterodimer; assay: mass photometry of ring assembly (Kd-app); assay type: binding, Bos taurus
T3 construct: native bovine brain αβ-tubulin (isotype mixture, PurSolutions)

[4] = biological target: T4, α1-tubulin (ChET) (Gallus gallus, UniProt P02552); assay: cryo-EM structure ([…] Å); assay type: binding
T4 construct: gene TUBA1A; native α1/β1-tubulin from chicken erythrocytes, Cp-52 C8 ring; with β1-tubulin (TUBB1, P09207)
T4 sequence (P02552 whole entry): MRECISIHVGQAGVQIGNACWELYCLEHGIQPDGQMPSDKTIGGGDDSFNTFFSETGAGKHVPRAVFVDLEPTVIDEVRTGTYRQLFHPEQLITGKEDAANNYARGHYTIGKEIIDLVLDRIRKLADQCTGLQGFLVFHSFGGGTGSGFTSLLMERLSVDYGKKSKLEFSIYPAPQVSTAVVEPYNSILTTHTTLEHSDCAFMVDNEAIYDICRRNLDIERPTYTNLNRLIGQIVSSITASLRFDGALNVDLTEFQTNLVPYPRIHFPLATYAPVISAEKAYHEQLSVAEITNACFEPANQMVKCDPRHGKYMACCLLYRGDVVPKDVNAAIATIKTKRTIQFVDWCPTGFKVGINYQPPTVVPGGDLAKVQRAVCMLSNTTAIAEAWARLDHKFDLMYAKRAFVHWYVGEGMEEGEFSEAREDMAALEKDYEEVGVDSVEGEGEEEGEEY
T4 sequence (P09207 whole entry partner): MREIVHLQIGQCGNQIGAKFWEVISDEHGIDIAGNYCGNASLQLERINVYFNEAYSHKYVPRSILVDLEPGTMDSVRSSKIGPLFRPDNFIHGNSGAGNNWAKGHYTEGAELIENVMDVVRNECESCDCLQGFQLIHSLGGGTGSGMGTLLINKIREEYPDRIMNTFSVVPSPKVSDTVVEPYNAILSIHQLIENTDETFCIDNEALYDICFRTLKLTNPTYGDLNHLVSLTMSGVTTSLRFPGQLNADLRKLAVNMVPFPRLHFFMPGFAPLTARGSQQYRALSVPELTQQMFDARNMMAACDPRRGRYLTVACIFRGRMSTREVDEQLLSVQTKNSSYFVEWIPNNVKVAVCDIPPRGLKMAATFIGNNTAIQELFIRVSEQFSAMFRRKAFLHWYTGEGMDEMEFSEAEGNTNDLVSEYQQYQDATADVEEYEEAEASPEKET

T2 sequence (P02552 whole entry): as the sequence (P02552 whole entry) above
T2 sequence (P09207 whole entry): as the sequence (P09207 whole entry partner) above

| SMILES | Kd [1] | Kd [2] | Kd [3] | cryo-EM structure (3.2 Å) [4] |
| --- | --- | --- | --- | --- |
| COc1ccc(C[C@H]2NC(=O)/C=C/C[C@@H]([C@H](C)[C@H]3O[C@@H]3c3ccccc3)OC(=O)[C@H](CC(C)C)OC(=O)C(C)(C)CNC2=O)cc1Cl [Cp-52, cryptophycin-52] | 25 ± 7 nM | 65 ± 17 nM | 172 ± 36 nM | – |
| Nc1nc2c(ncn2[C@@H]2O[C@H](COP(=O)(O)OP(=O)(O)OP(=O)(O)O)[C@@H](O)[C@H]2O)c(=O)[nH]1 [GTP] | – | – | – | comprises one copy of α1-tubulin with its bound GTP |
